# Reference: patent US11946027B2, “Systems and methods for monitoring behavior of cells and/or tissues in culturing media” (Purdue Research Foundation, priority 2019, dated 2024)
# Legend:
# cardiomyocytes = experiment: ECG recording of cardiomyocytes on the scaffold in response to norepinephrine; type: cell-based, neonatal mice; settings: cardiomyocytes at day 8
# Text: The beating rate decreased from 288 bpm to 60 bpm and to 36 bpm, whereas the amplitude increased from 66 μV to 83 μV and to 511 μV at day 2, 6, and 8, respectively. The results imply that spontaneous contractions of the individual cells initially occurred, followed by stronger and more synchronized contractions as the cells become more in contact each other. […] A representative microscopy image in FIG. 4C highlights the embedded four-channel-multiplexed sensing electrodes with the cardiomyocytes at day 8 within the domain of 1.4×1.4 mm^2. The results in FIG. 4D indicate the synchronized beating rate (about 0.63 Hz), amplitude (638˜763 μV), and peak width (˜about 0.6 sec). 3D mapping results of the action potentials (FIG. 4E) obtained from the total 48 ECG sensors (4×4 array in each layer) reveal the spontaneous beating activities of the cardiomyocytes at day 2, 6, and 8 without showing any toxic effect.
# For cardiomyocyte isolation, primary neonatal mice cardiomyocytes were prepared according to the Pierce Primary Cardiomyocyte Isolation Kit (Thermo Scientific, USA). Briefly, neonatal hearts were isolated from about 1 to 3 days old neonatal mice and placed into separate sterile microcentrifuge tubes containing 500 μL of ice cold Hank's Balanced Salt Solution (HBSS). […]
# [1] = hydrophilic and water-soluble; Doxorubicin Hydrochloride, Fisher; cited from earlier work
# MCF7 cells [2] = experiment: Impedimetric cytotoxicity of MCF7 cells on the scaffold system with Dox; type: cell-based; settings: 30 kHz
# Description: The scaffold system remained afloat on the medium, wherein the recording electrodes were entirely surrounded with polyimide elastomers. The flexible conductors were ACF cables (HST-9805-210, Elform, Inc., USA) placed on the sponge-like PDMS buoyant member and wired to an external data acquisition system (E4980AL Precision LCR meter, Keysight Technologies, USA) through the air. […] From about 16 hours later, drastic increase of the impedance occurred due to the cell aggregation and continuous proliferation. This tendency was more obvious in the MCF7 cells because the population doubling time of MCF7 cells (about 29 hours) is shorter than that of SKOV3 cells (about 48 hours) and HUVEC cells (about 60 hours). Consistently, the impedance of the MCF7 cells increased proportionally to the cellular density (FIG. 3C).
# (§1) The impedance was measured by using an LCR meter (Agilent 4294A, USA) with the voltage (between two adjacent recording electrodes) of about 1 mV for 48 hours at the frequencies of 1, 5, 10, 20, 30, 50, 100, 150, 200 and 250 kHz. The scaffold system was placed in the incubator (5% CO^2, 37° C.; Thermo Scientific, USA) and wired to the LCR meter located outside of the incubator via flexible ACF cables. The data was collected every 2 hours from the scaffold system.
# MCF7 cells [3] = experiment: Real-time impedance monitoring in three-layer stacked scaffold seeded with MCF7 cells, Dox introduced on the top; type: cell-based; settings: 1 mM Dox introduced on the top at 1-day incubation
# Description: In this configuration, each layer of the scaffold system remains spaced apart a fixed distance of about 5 mm along the perimeter by using spacers made of PDMS.
# as §1
SMILES,increase of beating rate (cardiomyocytes; addition of 100 μL of norepinephrine (bitartrate solution 10 μM) into the medium),time after NE administration to increase of beating rate (cardiomyocytes; addition of 100 μL of norepinephrine into the medium),solubility [1],time after drug administration at which impedance started to decrease (MCF7 cells [2]; 100 μM Dox introduced at 1-day incubation),decrease of the impedance (MCF7 cells [2]; low drug administration 10 μM),"rate of impedance decrease following drug administration, bottom layer (MCF7 cells [3]; bottom scaffold layer)","rate of impedance decrease following drug administration, middle layer (MCF7 cells [3]; middle scaffold layer)"
NC[C@H](O)c1ccc(O)c(O)c1 [norepinephrine],nearly two-fold,≤ 3 min,,,,,
"COc1cccc2c1C(=O)c1c(O)c3c(c(O)c1C2=O)C[C@@](O)(C(=O)CO)C[C@@H]3O[C@H]1C[C@H](N)[C@H](O)[C@H](C)O1 [Dox, doxorubicin]",,,about 50 mg/ml,≤ 4 h,no substantial decrease of the impedance,about 1.6 Ω/hr,about 5.4 Ω/hr
